Columns and labels:
[1] = biological target: hKv1.5 (Homo sapiens, UniProt P22460); experiment: Kv1.5 Autopatch Electrophysiology (whole cell patch-clamp); assay type: cell-based; conditions: compound at 1µM, room temperature (22-24°C), held at -80mV, step to 0mV for 1000ms, total charge measured
Description: The external bathing solution contained (in mM): 150 NaCl, 10 KCl, […], 3 MgCl2, 1 CaCl2, 10 HEPES, pH 7.4. Patch pipettes were filled with an electrode solution of composition (in mM): 160 KCl, 0.5 MgCl2, 10 HEPES, 1 EGTA, pH 7.4 with KOH.
Compounds were dissolved in DMSO (100 %) and made up in the external bather at a concentration of 1µM. All experiments were conducted at room temperature (22-24°C).
A cell suspension (10 ml), with a density of 100,000 cells/ml, was aliquoted into a 15ml centrifuge tube and transferred to an incubator (37°C, 5% CO2) for approximately one hour before use. Following 60 min incubation, a tube was taken and centrifuged at 1000 rpm for 4 mins at room temperature. 9.5 ml supernatant was thence discarded, leaving a cell pellet at the bottom of the tube. The pellet was then resuspended using 100 µl of cold (4 °C), filtered (0.22 µm), 0.2 % BSA/bather solution (0.02g BSA/10ml bather). The bottom of the tube was manually agitated gently until the solution became cloudy with cells. The 100 µl cell resuspension solution was then stored on the bench at 4 °C (using a Peltier-based temperature control device) until used.
A length of capillary glass (1B150F-4, WPI) was dipped into the cell suspension solution, such that - 3 cm column of fluid was taken up by capillary action. A Ag/AgCl wire was dropped into the non-dipped end of the capillary also. The outside of the solution-filled end of the capillary was then dried and the capillary was loaded into the AutoPatch™. Borosilicate glass patch pipettes (from 1.5mm OD, thin-walled filamented, GC150-TF capillary glass, Harvard) were pulled using a DMZ pipette puller (Zeitz Instruments), and were back-filled using the internal pipette solution, being careful that no bubbles remain at the tip or in the body of the pipette. Patch pipettes typically had resistances of 2.3-3.5 MΩ. Once filled, the pipette tip and a proportion of the shaft (- 15 mm) were dipped into Sigmacote (Sigma). The recording pipette was then loaded into the AutoPatch™.
Automated patch-clamping was initiated by the operator, but thereafter AutoPatch.exe continued the experiment providing that pre-set conditions and criteria were satisfied.
Whole cell patch-clamp recordings were made using the AutoPatch™ rig, which incorporated an EPC9 amplifier (HEKA, Germany) under control of Pulse software (v8.54, HEKA, Germany), a motion controller with 2 translators (Newport, UK), valve controller (VF1) and a c-level suction device all at room temperature (22-24°C). This equipment was completely under the control of AutoPatch.exe and operator intervention was only made when there was a requirement to refill the drug reservoirs or to prevent the loss of a cell due to a technical error. Cells with an Rseries greater than 18 MΩ were discounted from the experiment.
Qualification stages prior to perfusion and drug application ensured that the observed current met the criteria for the experiment. Only those cells with an IK > 500 pA were used for experiments. Cells were continuously perfused with external solution at a flow rate of 1.8-2 ml/minute. […] Online analysis of the hKv1.5 current during the application of compounds was performed by the AutoPatch™ software. Voltage-step protocols and analysis of data was performed as described for conventional electrophysiology.
Electrophysiology voltage-step protocols and analysis of data was performed as follows. Data was sampled at 5kHz, and filtered with a -3 dB bandwidth of 2.5kHz. Cells were held at a voltage of -80mV. Currents were evoked to a voltage step for 1000ms in duration at 0mV every 5s. Currents were analysed using Pulsefit software (v8.54, HEKA, Germany), with the total charge measured during the whole of the voltage step. All other plots were produced using Igor Pro (WaveMetrics).

[2] = biological target: T1, human Kv1.5 (Homo sapiens, UniProt P22460); experiment: Kv1.5 Rb+ Efflux Assay; assay type: cell-based; conditions: inhibition of 86Rb+ efflux through Kv1.5; cells stably transfected with human Kv1.5; 10 point concentration response curves n=2; normalised to 2.5mM 4 amino-pyridine block
T1 construct: expressed in transfected cells
Description: The pore of a potassium channel is permeable to other monovalent cations such as Rb^+ and Tl^+. Analysis of cellular efflux of potassium channel permeable ions enables potassium channel activity to be monitored directly. Cells stably transfected with cDNA for human Kv1.5 (in pEF6::VA-His-TOPO) were grown in Dulbecco's Modified Eagle media (DMEM) alpha supplemented with 10% Fetal Calf Serum (FCS), 20 µl/ml penicillin (5000U/ml) streptomycin (5000µg/ml), 10µl/ml [100x] glutamine, and blasticidin (7.5µg/ml). Cells were dispensed into 96 well cellstar TC plates and allowed to grow until a confluent monolayer was visible. On the morning of the assay run, cold media was aspirated using the TECAN plate washer, and a 50µl media spike containing 2µCi/ml (37kBq/ml) ^86Rb^+ added to each well containing cells using the Shallow-Well Matrix Platemate. Plates were placed in a incubator at 37°C for a minimum of 3 hours. Unloaded ^86Rb^+ in the "hot" media was aspirated and each well washed 4x250µl with Earls Balanced Salt Solution (EBSS) which contained 5mM KCl, 140mM NaCl, 2mM CaCl2, 1mM MgSO4, 10mM HEPES, and 5mM glucose, pH 7.4, 290-300 mOsm. These cells were then pre-incubated with 50µl of EBSS +/- test compounds for 10 minutes at room temperature. After the 10 minute incubation, 50µl of modified EBSS which contained 145mM KCl, 2mM CaCl2, 1mM MgSO4, 10mM HEPES, 5mM glucose, pH 7.4, 290-300 mOsm, was added, and the cells were incubated for a further 10 minutes at room temperature. The high KCl EBSS was used to depolarise cells to a membrane potential that would activate Kv1.5 channels. After the final incubation 80µl/100µl of the reaction from each well was transferred to equivalent wells in a Packard "Optiplate" white 96 well plate and counted in a Packard TopCount liquid scintillation counter by Cerenkov emission. Percentage inhibition ^86Rb^+ efflux through Kv1.5 was calculated by normalisation to 2.5mM 4 amino-pyridine control block of Kv1.5. Alternatively cells were loaded with ^85Rb^+ and quantified by atomic absorption spectroscopy. IC50 determinations were derived from 10 point concentration response curves n=2 using the method described above. Data was fitted as variable slope sigmoidal fit using Graphpad Prism (V3.02) software.

T1 sequence (P22460 whole entry): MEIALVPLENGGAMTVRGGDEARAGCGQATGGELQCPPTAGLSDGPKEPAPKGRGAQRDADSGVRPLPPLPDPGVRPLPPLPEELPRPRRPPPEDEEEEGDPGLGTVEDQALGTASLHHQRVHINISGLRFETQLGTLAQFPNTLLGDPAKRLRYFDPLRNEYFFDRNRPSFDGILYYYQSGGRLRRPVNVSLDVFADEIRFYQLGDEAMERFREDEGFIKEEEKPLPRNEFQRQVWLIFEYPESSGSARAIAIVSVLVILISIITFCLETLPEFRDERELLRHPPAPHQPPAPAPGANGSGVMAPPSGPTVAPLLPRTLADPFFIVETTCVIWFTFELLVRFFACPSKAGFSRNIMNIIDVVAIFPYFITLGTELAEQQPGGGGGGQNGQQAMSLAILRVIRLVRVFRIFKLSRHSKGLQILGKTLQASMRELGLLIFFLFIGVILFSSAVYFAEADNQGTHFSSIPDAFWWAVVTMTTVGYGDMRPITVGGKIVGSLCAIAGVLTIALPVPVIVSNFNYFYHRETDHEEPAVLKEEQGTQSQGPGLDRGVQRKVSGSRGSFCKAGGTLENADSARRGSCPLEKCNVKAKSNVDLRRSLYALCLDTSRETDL
Chain of hKv1.5 (P22460 whole entry): as above

SMILES | inhibition at 1 µM [1] | IC50 [2] | % Inhibition at 1µM [1]
CN(C)C(=O)CNc1ncnc2scc(-c3ccccc3)c12 [Example 103, N,N-Dimethyl-2-(5-phenyl-thieno[2,3-d]pyrimidin-4-ylamino)-acetamide] | 13.6% | > 30 µM | –
c1ccc(-c2csc3ncnc(NCc4ccccn4)c23)cc1 [Example 105, (5-Phenyl-thieno[2,3-d]pyrimidin-4-yl)-pyridin-2-ylmethyl-amine] | 63% | 0.28 µM | –
c1ccc(-c2csc3ncnc(OCc4ccccn4)c23)cc1 [Example 106, 5-Phenyl-4-(pyridin-2-ylmethoxy)-thieno[2,3-d]pyrimidine] | 21.9% | 0.33 µM | –
c1ccc(-c2csc3ncnc(NCc4ccoc4)c23)cc1 [Example 107, Furan-3-ylmethyl-(5-phenyl-thieno[2,3-d]pyrimidin-4-yl)-amine] | 25.3% | 1.05 µM | –
Cc1ccc(CNc2ncnc3scc(-c4ccccc4)c23)o1 [Example 108, (5-Methyl-furan-2-ylmethyl)-(5-phenyl-thieno[2,3-d]pyrimidin-4-yl)-amine] | 37.2% | 0.41 µM | –
c1ccc(-c2csc3ncnc(OCc4ccco4)c23)cc1 [Example 109, 4-(Furan-2-ylmethoxy)-5-phenyl-thieno[2,3-d]pyrimidine] | 52.3% | 0.8 µM | –
Cn1cccc1CNc1ncnc2scc(-c3ccccc3)c12 [Example 110, (1-Methyl-1H-pyrrol-2-ylmethyl)-(5-phenyl-thieno[2,3-d]pyrimidin-4-yl)-amine] | 14.2% | 3.9 µM | –
c1ccc(-c2csc3ncnc(NCCc4ccccn4)c23)cc1 [Example 111, (5-Phenyl-thieno[2,3-d]pyrimidin-4-yl)-(2-pyridin-2-yl-ethyl)-amine] | 40% | 4.49 µM | 22.2%
COC(=O)CNc1ncnc2scc(-c3ccccc3)c12 [Example 112, (5-Phenyl-thieno[2,3-d]pyrimidin-4-ylamino)-acetic acid methyl ester] | 43.5% | 5.03 µM | –
c1csc(CNc2ncnc3scc(-c4cccs4)c23)c1 [Example 115, Thiophen-2-ylmethyl-(5-thiophen-2-yl-thieno[2,3-d]pyrimidin-4-yl)-amine] | – | 7.07 µM | 45.9%
c1ccc(-c2csc3ncnc(SCc4ccco4)c23)cc1 [Example 117, 4-(Furan-2-ylmethylsulfanyl)-5-phenyl-thieno[2,3-d]pyrimidine] | 43.6% | 9.37 µM | 57.2%
c1ccc(-c2csc3ncnc(NCCc4cccs4)c23)cc1 [Example 118, (5-Phenyl-thieno[2,3-d]pyrimidin-4-yl)-(2-thiophen-2-yl-ethyl)-amine] | 15.8% | 8.56 µM | –
c1ccc(COc2ncnc3scc(-c4ccccc4)c23)cc1 [Example 119, 4-Benzyloxy-5-phenyl-thieno[2,3-d]pyrimidine] | 44.1% | 5.79 µM | –
c1ccc(-c2csc3ncnc(SCc4ccccn4)c23)cc1 [Example 120, 5-Phenyl-4-(pyridin-2-ylmethylsulfanyl)-thieno[2,3-d]pyrimidine] | 25% | 12.7 µM | –
Cc1ccc(-c2csc3ncnc(NCc4ccccn4)c23)nc1 [Example 121, [5-(5-Methyl-pyridin-2-yl)-thieno[2,3-d]pyrimidin-4-yl]-pyridin-2-ylmethyl-amine] | 82.6% | 2.09 µM | –
Cc1ccc(-c2csc3ncnc(NCc4ccco4)c23)nc1 [Example 122, Furan-2-ylmethyl-[5-(5-methyl-pyridin-2-yl)-thieno[2,3-d]pyrimidin-4-yl]-amine] | 36.3% | 3.53 µM | –
Cc1ccc(-c2csc3ncnc(NCc4ccco4)c23)cc1 [Example 126, Furan-2-ylmethyl-(5-p-tolyl-thieno[2,3-d]pyrimidin-4-yl)-amine] | 83.4% | 0.47 µM | –
COc1ccc(CCNc2ncnc3scc(-c4ccc(C)cc4)c23)cc1OC [Example 127, [2-(3,4-Dimethoxy-phenyl)-ethyl]-(5-p-tolyl-thieno[2,3-d]pyrimidin-4-yl)-amine] | 20.7% | 5.3 µM | –
Cc1ccc(-c2csc3ncnc(NCCN4CCNC4=O)c23)cc1 [Example 128, 1-[2-(5-p-Tolyl-thieno[2,3-d]pyrimidin-4-ylamino)-ethyl]-imidazolidin-2-one] | 25% | > 30 µM | –
Cc1ccc(-c2csc3ncnc(Oc4ccc5ccccc5c4)c23)cc1 [Example 129, 4-(Naphthalen-2-yloxy)-5-p-tolyl-thieno[2,3-d]pyrimidine] | 47.4% | > 30 µM | –
COC(=O)c1ccc(Oc2ncnc3scc(-c4ccc(C)cc4)c23)cc1 [Example 131, 4-(5-p-Tolyl-thieno[2,3-d]pyrimidin-4-yloxy)-benzoic acid methyl ester] | 29.8% | > 30 µM | –
Cc1ccc(-c2csc3ncnc(NCCc4ccc5c(c4)OCCO5)c23)cc1C [Example 132, [2-(2,3-Dihydro-benzo[1,4]dioxin-6-yl)-ethyl]-[5-(3,4-dimethyl-phenyl)-thieno[2,3-d]pyrimidin-4-yl]-amine] | 92% | 4.58 µM | –
Cc1ccc(-c2csc3ncnc(NCc4ccco4)c23)cc1C [Example 133, [5-(3,4-Dimethyl-phenyl)-thieno[2,3-d]pyrimidin-4-yl]-furan-2-ylmethyl-amine] | 77% | 0.67 µM | –
Clc1ccc(-c2csc3ncnc(NCc4ccco4)c23)cc1 [Example 135, [5-(4-Chloro-phenyl)-thieno[2,3-d]pyrimidin-4-yl]-furan-2-ylmethyl-amine] | 84.8% | 0.93 µM | –

— patent publication EP1641803B1, “THIENOPYRIMIDINE DERIVATIVES AS POTASSIUM CHANNEL INHIBITORS” (Xention Limited, priority 2003, dated 2004)
